Test results published in ChEMBL document CHEMBL1201862, “PubChem BioAssay data set” (2004).
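Tested at 5 concentrations; 48 h exposure; 96-well plates; endpoints linearly interpolated, else capped at highest concentration. GI50: concentration for 50% inhibition of growth.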 Activity calls are given as the source filed them. Rule as the data show it: active = GI50 up to about 1.1 µM and inactive = higher.

Legend:
Assay in all cases: NCI-60 cell line screen, 48 h
PC-3 = test system: PC-3
Malme-3M = test system: Malme-3M
EKVX = test system: EKVX
HCT-15 = test system: HCT-15
CAKI-1 = test system: CAKI-1
MOLT-4 = test system: MOLT-4
DU-145 = test system: DU-145
786-0 = test system: 786-0
A498 = test system: A498
COLO 205 = test system: COLO 205
HOP-62 = test system: HOP-62
MDA-MB-435 = test system: MDA-MB-435
HCT-116 = test system: HCT-116
NCI-H226 = test system: NCI-H226
LOX IMVI = test system: LOX IMVI
CCRF-CEM = test system: CCRF-CEM
UO-31 = test system: UO-31
SK-MEL-5 = test system: SK-MEL-5
SK-MEL-2 = test system: SK-MEL-2
HCC 2998 = test system: HCC 2998
RXF 393 = test system: RXF 393
SF-295 = test system: SF-295
M14 = test system: M14
HT-29 = test system: HT-29
SNB-19 = test system: SNB-19
HOP-92 = test system: HOP-92
SF-268 = test system: SF-268
NCI-H23 = test system: NCI-H23
SK-OV-3 = test system: SK-OV-3
SR = test system: SR
OVCAR-5 = test system: OVCAR-5
MDA-N = test system: MDA-N
UACC-62 = test system: UACC-62
SK-MEL-28 = test system: SK-MEL-28
MDA-MB-231 = test system: MDA-MB-231
IGROV-1 = test system: IGROV-1
BT-549 = test system: BT-549
NCI/ADR-RES = test system: NCI/ADR-RES
SN12C = test system: SN12C
Hs-578T = test system: Hs-578T
UACC-257 = test system: UACC-257
A549 = test system: A549
OVCAR-8 = test system: OVCAR-8
NCI-H522 = test system: NCI-H522
OVCAR-4 = test system: OVCAR-4
ACHN = test system: ACHN
MCF7 = test system: MCF7
KM12 = test system: KM12
T47D = test system: T47D
HL-60 = test system: HL-60
SNB-75 = test system: SNB-75
RPMI-8226 = test system: RPMI-8226
U-251 = test system: U-251
SF-539 = test system: SF-539
OVCAR-3 = test system: OVCAR-3
TK-10 = test system: TK-10
SW-620 = test system: SW-620
K562 = test system: K562
NCI-H460 = test system: NCI-H460

Measured: GI50

O=C1c2ccccc2C(=O)c2c1ccc1c2OCO1
inactive: PC-3 > 100 µM | Malme-3M > 100 µM | EKVX > 100 µM | CAKI-1 > 100 µM | MOLT-4 > 100 µM | DU-145 > 100 µM | 786-0 > 100 µM | A498 > 100 µM | COLO 205 > 100 µM | HOP-62 > 100 µM | MDA-MB-435 > 100 µM | HCT-116 > 100 µM | NCI-H226 58.7 µM | LOX IMVI > 100 µM | CCRF-CEM > 10 µM | UO-31 > 100 µM | SK-MEL-5 > 100 µM | SK-MEL-2 > 100 µM | HCC 2998 > 100 µM | RXF 393 > 100 µM | SF-295 > 100 µM | M14 > 100 µM | HT-29 > 100 µM | SNB-19 > 100 µM | HOP-92 > 100 µM | SF-268 > 100 µM | NCI-H23 > 100 µM | SK-OV-3 > 100 µM | SR > 100 µM | OVCAR-5 > 100 µM | MDA-N > 100 µM | UACC-62 > 100 µM | SK-MEL-28 > 100 µM | MDA-MB-231 > 100 µM | IGROV-1 > 100 µM | BT-549 > 100 µM | NCI/ADR-RES > 100 µM | SN12C > 100 µM | Hs-578T > 100 µM | UACC-257 > 100 µM | A549 > 100 µM | OVCAR-8 > 100 µM | NCI-H522 > 100 µM | OVCAR-4 > 100 µM | ACHN > 10 µM | MCF7 > 100 µM | KM12 > 100 µM | T47D > 100 µM | HL-60 > 100 µM | SNB-75 23.1 µM | RPMI-8226 > 100 µM | U-251 > 100 µM | SF-539 > 100 µM | OVCAR-3 > 100 µM | TK-10 > 100 µM | SW-620 > 100 µM
> 100 µM: HCT-15

FC(F)(F)c1nc2ccc(SSc3ccc4nc(C(F)(F)F)[nH]c4c3)cc2[nH]1
93.5 µM: HCT-15
inactive: PC-3 36.6 µM | Malme-3M > 10 µM | EKVX > 10 µM | CAKI-1 > 10 µM | K562 31.9 µM | MOLT-4 27.3 µM | DU-145 > 10 µM | 786-0 50.5 µM | A498 > 10 µM | COLO 205 33.9 µM | HOP-62 31.6 µM | MDA-MB-435 40.6 µM | HCT-116 > 10 µM | NCI-H226 > 10 µM | NCI-H460 24.5 µM | LOX IMVI 40.5 µM | CCRF-CEM > 10 µM | UO-31 31.6 µM | SK-MEL-5 45.9 µM | SK-MEL-2 > 10 µM | HCC 2998 38.3 µM | RXF 393 > 10 µM | SF-295 4.41 µM | M14 94.2 µM | HT-29 > 10 µM | SNB-19 > 10 µM | HOP-92 > 10 µM | SF-268 > 10 µM | NCI-H23 47.5 µM | SK-OV-3 > 10 µM | SR 30.7 µM | OVCAR-5 > 100 µM | MDA-N 80.5 µM | UACC-62 73.8 µM | SK-MEL-28 > 10 µM | MDA-MB-231 23 µM | IGROV-1 > 10 µM | BT-549 92.7 µM | NCI/ADR-RES > 10 µM | SN12C 46.7 µM | Hs-578T > 10 µM | UACC-257 35.9 µM | A549 42.3 µM | OVCAR-8 92.3 µM | NCI-H522 49 µM | OVCAR-4 61.5 µM | ACHN 88.7 µM | MCF7 35.7 µM | KM12 > 10 µM | T47D 38.8 µM | HL-60 48.8 µM | SNB-75 > 10 µM | RPMI-8226 25.1 µM | U-251 84.1 µM | SF-539 41.8 µM | OVCAR-3 36.6 µM | TK-10 79.3 µM | SW-620 61.1 µM
